Assay results published in ChEMBL document CHEMBL3991601, “The target landscape of clinical kinase drugs” (Science, 2017).
The source made the active and inactive calls.

Experiments:
ADP/ATP translocase 2 = molecular target: T1, ADP/ATP translocase 2 (Homo sapiens, UniProt P05141)
T1 sequence (P05141 whole entry): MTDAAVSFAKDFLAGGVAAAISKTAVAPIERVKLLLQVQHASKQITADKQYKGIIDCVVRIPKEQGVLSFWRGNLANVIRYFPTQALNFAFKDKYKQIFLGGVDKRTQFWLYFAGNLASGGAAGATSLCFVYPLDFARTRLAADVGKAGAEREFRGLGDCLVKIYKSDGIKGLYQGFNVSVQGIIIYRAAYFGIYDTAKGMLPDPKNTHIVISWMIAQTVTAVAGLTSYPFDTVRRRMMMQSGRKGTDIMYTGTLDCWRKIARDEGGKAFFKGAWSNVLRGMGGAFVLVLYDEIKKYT

[1] = molecular target: T2, Glycogen phosphorylase, brain form (Homo sapiens, UniProt P11216)
T2 sequence (P11216 whole entry): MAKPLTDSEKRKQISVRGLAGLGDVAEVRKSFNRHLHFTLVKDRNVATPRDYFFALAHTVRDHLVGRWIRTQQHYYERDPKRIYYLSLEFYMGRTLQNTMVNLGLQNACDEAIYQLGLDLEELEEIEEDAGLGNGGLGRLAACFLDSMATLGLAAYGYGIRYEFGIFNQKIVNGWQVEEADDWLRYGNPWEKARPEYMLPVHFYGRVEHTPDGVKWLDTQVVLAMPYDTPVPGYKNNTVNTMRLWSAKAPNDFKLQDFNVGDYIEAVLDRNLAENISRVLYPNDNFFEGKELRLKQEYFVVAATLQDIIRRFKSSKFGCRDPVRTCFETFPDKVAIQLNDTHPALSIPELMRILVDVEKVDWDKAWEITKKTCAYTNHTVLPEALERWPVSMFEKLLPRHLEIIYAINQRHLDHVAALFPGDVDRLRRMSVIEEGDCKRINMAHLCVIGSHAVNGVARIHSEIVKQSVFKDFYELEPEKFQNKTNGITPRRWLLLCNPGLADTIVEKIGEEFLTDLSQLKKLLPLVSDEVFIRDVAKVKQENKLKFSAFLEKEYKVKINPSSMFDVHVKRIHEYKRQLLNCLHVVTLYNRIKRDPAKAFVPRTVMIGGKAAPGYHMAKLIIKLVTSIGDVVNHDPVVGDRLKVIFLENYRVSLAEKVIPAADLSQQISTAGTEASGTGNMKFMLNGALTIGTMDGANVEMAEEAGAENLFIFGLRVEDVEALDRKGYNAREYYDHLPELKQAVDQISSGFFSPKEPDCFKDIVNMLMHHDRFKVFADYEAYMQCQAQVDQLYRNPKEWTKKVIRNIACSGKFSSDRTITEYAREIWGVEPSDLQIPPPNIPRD

[2] = molecular target: T3, Phosphorylase b kinase gamma catalytic chain, liver/testis isoform (Homo sapiens, UniProt P15735)
T3 sequence (P15735 whole entry): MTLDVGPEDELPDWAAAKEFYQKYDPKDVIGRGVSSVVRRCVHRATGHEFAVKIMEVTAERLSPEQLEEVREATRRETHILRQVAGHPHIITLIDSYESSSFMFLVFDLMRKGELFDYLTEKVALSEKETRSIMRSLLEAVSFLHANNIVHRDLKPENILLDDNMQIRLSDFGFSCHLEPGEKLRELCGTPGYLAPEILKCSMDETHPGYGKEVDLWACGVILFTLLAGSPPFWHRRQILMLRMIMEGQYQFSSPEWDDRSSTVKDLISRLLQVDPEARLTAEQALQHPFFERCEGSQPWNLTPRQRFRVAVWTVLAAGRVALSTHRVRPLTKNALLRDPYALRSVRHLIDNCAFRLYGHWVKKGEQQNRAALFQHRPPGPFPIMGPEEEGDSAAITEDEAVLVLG

[3] = molecular target: Serine/threonine-protein kinase MRCK gamma (Homo sapiens, UniProt Q6DT37)
Sequence of Serine/threonine-protein kinase MRCK gamma (Q6DT37 whole entry): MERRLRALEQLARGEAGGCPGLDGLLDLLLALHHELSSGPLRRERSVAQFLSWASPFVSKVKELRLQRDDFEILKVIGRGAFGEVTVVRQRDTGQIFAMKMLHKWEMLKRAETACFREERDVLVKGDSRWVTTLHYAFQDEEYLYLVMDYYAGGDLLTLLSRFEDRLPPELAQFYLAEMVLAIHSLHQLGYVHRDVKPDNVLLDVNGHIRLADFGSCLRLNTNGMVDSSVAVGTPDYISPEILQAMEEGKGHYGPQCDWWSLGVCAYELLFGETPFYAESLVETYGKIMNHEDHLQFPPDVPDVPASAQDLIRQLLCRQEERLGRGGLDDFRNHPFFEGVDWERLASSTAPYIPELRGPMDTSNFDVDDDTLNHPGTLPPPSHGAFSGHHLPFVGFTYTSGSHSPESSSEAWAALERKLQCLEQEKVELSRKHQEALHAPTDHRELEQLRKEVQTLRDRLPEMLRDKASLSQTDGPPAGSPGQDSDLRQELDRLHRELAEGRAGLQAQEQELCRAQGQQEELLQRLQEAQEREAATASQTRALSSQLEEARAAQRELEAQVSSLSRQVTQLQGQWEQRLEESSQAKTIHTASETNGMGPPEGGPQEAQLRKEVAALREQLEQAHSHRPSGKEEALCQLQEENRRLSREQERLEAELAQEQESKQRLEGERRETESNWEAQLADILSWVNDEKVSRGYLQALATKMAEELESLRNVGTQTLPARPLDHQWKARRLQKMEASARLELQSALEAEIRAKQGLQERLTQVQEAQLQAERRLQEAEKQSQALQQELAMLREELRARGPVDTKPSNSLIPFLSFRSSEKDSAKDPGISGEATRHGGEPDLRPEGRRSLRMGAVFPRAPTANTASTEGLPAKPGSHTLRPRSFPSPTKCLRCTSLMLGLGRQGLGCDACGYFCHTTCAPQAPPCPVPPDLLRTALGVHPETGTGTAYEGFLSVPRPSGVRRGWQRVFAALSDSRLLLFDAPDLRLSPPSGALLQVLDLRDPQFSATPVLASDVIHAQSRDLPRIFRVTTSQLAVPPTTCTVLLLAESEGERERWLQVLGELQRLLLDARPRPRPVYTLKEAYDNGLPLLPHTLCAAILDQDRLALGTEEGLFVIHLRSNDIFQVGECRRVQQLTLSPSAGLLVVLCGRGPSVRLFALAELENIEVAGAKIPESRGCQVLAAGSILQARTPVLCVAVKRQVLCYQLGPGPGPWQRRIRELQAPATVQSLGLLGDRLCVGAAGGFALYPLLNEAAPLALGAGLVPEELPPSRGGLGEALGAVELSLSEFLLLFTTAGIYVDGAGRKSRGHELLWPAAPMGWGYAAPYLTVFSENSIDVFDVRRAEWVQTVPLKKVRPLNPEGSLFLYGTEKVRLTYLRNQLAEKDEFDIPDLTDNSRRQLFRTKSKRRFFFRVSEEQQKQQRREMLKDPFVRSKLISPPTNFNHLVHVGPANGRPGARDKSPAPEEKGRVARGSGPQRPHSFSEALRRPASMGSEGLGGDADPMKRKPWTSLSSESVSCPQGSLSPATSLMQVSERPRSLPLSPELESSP

[4] = molecular target: Structural maintenance of chromosomes protein 2 (Homo sapiens, UniProt O95347)
Sequence of Structural maintenance of chromosomes protein 2 (O95347 whole entry): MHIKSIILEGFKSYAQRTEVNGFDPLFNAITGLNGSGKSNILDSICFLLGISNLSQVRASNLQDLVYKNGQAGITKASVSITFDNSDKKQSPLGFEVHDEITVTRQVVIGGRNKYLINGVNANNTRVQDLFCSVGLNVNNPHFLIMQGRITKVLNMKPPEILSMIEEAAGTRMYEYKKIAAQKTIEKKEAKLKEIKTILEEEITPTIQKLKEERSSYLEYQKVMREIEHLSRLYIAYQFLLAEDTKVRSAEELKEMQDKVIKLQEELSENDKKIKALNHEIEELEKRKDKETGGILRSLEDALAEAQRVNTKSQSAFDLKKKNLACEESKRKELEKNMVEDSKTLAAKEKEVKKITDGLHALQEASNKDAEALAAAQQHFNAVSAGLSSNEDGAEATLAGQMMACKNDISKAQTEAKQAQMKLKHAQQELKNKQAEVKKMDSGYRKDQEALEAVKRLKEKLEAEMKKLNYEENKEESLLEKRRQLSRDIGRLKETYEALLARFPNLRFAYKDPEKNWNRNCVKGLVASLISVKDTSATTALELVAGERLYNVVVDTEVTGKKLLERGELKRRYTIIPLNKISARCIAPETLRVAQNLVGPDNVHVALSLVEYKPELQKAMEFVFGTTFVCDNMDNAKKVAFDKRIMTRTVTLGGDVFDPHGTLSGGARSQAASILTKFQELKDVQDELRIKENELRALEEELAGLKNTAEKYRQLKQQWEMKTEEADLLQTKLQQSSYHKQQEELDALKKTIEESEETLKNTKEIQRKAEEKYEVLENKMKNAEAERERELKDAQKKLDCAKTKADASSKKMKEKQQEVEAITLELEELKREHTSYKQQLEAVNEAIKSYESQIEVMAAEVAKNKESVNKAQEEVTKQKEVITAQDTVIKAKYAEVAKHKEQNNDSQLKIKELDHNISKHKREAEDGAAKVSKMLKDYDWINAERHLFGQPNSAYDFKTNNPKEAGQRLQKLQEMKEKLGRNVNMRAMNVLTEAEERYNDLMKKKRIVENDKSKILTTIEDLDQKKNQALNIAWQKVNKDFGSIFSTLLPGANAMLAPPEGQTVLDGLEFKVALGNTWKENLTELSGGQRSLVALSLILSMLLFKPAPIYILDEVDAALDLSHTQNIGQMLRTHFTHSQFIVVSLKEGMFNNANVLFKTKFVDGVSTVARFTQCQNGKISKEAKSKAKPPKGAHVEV

[5] = molecular target: T4, Serine/threonine-protein kinase TAO3 (Homo sapiens, UniProt Q9H2K8)
T4 sequence (Q9H2K8 whole entry): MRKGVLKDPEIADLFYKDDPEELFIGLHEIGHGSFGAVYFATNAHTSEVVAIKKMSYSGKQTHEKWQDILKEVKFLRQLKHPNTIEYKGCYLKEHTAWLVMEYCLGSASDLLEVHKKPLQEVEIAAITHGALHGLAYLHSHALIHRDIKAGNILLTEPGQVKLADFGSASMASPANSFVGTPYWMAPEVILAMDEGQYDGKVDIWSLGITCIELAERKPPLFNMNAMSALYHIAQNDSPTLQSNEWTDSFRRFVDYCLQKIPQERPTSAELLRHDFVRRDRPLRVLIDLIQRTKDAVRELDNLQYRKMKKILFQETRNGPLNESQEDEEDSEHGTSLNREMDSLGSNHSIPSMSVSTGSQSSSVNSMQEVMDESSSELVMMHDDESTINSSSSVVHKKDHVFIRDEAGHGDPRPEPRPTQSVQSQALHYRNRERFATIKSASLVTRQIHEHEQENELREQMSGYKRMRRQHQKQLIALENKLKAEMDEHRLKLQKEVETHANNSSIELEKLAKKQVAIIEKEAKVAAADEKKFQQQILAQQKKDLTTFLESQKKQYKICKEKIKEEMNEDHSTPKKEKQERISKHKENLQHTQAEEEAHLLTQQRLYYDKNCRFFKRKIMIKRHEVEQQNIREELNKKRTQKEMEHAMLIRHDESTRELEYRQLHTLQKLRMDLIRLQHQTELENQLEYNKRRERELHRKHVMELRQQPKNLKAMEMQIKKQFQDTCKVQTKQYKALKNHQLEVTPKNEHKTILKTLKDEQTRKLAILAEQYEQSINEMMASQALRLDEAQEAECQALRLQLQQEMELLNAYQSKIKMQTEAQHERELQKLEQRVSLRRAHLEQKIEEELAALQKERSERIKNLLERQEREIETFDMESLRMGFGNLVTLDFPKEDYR
Also: in the data inactive means no Kd found up to 30 µM.

Kd (ADP/ATP translocase 2) | Kd [1] | Kd [2] | Kd [3] | Kd [4] | Kd [5] | Compound
> 30 µM (inactive) | > 30 µM (inactive) | > 30 µM (inactive) | > 30 µM (inactive) | > 30 µM (inactive) | > 30 µM (inactive) | Cc1cccc(-c2nn3c(c2-c2ccnc4ccc(C(N)=O)cc24)CCC3)n1 [GALUNISERTIB]
> 30 µM (inactive) | > 30 µM (inactive) | > 30 µM (inactive) | > 30 µM (inactive) | > 30 µM (inactive) | > 30 µM (inactive) | COc1ccc(S(=O)(=O)N(C(C)=O)c2ccccc2/C=C/c2cc[n+]([O-])cc2)cc1 [HMN-214]
> 30 µM (inactive) | > 30 µM (inactive) | > 30 µM (inactive) | > 30 µM (inactive) | > 30 µM (inactive) | > 30 µM (inactive) | CNC(=O)c1cccc2cc(Oc3ccnc4cc(OCC5(N)CC5)c(OC)cc34)ccc12 [LUCITANIB]
> 30 µM (inactive) | > 30 µM (inactive) | 18.6 µM | > 30 µM (inactive) | > 30 µM (inactive) | 10.6 µM (active) | CNC(=O)c1nn(C)c2c1C(C)(C)Cc1cnc(Nc3ccc(N4CCN(C)CC4)cc3)nc1-2 [MILCICLIB]
> 30 µM (inactive) | > 30 µM (inactive) | > 30 µM (inactive) | > 30 µM (inactive) | > 30 µM (inactive) | > 30 µM (inactive) | NC1(c2ccc(-c3nc4ccn5c(=O)[nH]nc5c4cc3-c3ccccc3)cc2)CCC1 [MK-2206]
> 30 µM (inactive) | > 30 µM (inactive) | > 30 µM (inactive) | > 30 µM (inactive) | > 30 µM (inactive) | > 30 µM (inactive) | CN(C[C@@H]1COCCO1)S(=O)(=O)Nc1ccc2ccc3ncc(-c4cnn(C)c4)cc3c(=O)c2c1 [MK-2461]
> 30 µM (inactive) | > 30 µM (inactive) | > 30 µM (inactive) | > 30 µM (inactive) | > 30 µM (inactive) | > 30 µM (inactive) | Cn1cc(-c2cnc3ccc4ccc(CS(=O)(=O)NCc5ccccn5)cc4c(=O)c3c2)cn1 [MK-8033]
> 30 µM (inactive) | > 30 µM (inactive) | > 30 µM (inactive) | > 30 µM (inactive) | > 30 µM (inactive) | > 30 µM (inactive) | FC(F)(F)c1ccc(/C=C/c2nc(COc3ccc(CCCCn4ccnn4)cc3)co2)cc1 [MUBRITINIB]
> 30 µM (inactive) | > 30 µM (inactive) | > 30 µM (inactive) | > 30 µM (inactive) | > 30 µM (inactive) | > 30 µM (inactive) | COc1ncc(-c2ccc3nccc(-c4ccnnc4)c3c2)cc1NS(=O)(=O)c1ccc(F)cc1F [OMIPALISIB]
> 30 µM (inactive) | > 30 µM (inactive) | 0.053 µM (active) | > 30 µM (inactive) | > 30 µM (inactive) | > 30 µM (inactive) | Cc1nc(Nc2n[nH]c3c2CN(C(=O)N[C@H](CN(C)C)c2ccccc2)C3(C)C)c2sccc2n1 [PF-03758309]
> 30 µM (inactive) | > 30 µM (inactive) | > 30 µM (inactive) | > 30 µM (inactive) | > 30 µM (inactive) | > 30 µM (inactive) | Cc1cnc(NC(=O)Nc2cc(Br)c(C)cc2OC[C@@H]2CNCCO2)cn1 [RABUSERTIB]
> 30 µM (inactive) | > 30 µM (inactive) | > 30 µM (inactive) | > 30 µM (inactive) | > 30 µM (inactive) | > 30 µM (inactive) | CO[C@H]1C[C@@H]2CC[C@@H](C)[C@@](O)(O2)C(=O)C(=O)N2CCCC[C@H]2C(=O)O[C@H]([C@H](C)C[C@@H]2CC[C@@H](OP(C)(C)=O)[C@H](OC)C2)CC(=O)[C@H](C)/C=C(\C)[C@@H](O)[C@@H](OC)C(=O)[C@H](C)C[C@H](C)/C=C/C=C/C=C/1C [RIDAFOROLIMUS]
> 30 µM (inactive) | > 30 µM (inactive) | > 30 µM (inactive) | > 30 µM (inactive) | > 30 µM (inactive) | > 30 µM (inactive) | N#CC1(c2ccc(NC(=O)c3cccnc3NCc3ccncc3)cc2)CCCC1 [RIVOCERANIB]
> 30 µM (inactive) | > 30 µM (inactive) | > 30 µM (inactive) | > 30 µM (inactive) | > 30 µM (inactive) | > 30 µM (inactive) | O=c1[nH]ccc2cc(OC3CCNCC3)ccc12 [SAR-407899 FREE BASE]
> 30 µM (inactive) | > 30 µM (inactive) | > 30 µM (inactive) | > 30 µM (inactive) | > 30 µM (inactive) | > 30 µM (inactive) | Cn1cc(-c2cnn3c(N)c(Br)c([C@@H]4CCCNC4)nc23)cn1 [SCH-900776]

Compound | Kd (ADP/ATP translocase 2) | Kd [1] | Kd [2] | Kd [3] | Kd [4] | Kd [5]
CC(C)(C)c1nc(-c2cccc(NS(=O)(=O)c3c(F)cccc3F)c2F)c(-c2ccnc(N)n2)s1 [DABRAFENIB] | > 30 µM (inactive) | > 30 µM (inactive) | > 30 µM (inactive) | > 30 µM (inactive) | > 30 µM (inactive) | > 30 µM (inactive)
O=C(Nc1nc2cccc(-c3ccc(CN4CCS(=O)(=O)CC4)cc3)n2n1)C1CC1 [FILGOTINIB] | > 30 µM (inactive) | > 30 µM (inactive) | > 30 µM (inactive) | > 30 µM (inactive) | > 30 µM (inactive) | > 30 µM (inactive)
O=C(Nc1cc(C(F)(F)F)cc(C(F)(F)F)c1)c1cc(Cl)ccc1O [IMD-0354] | > 30 µM (inactive) | > 30 µM (inactive) | > 30 µM (inactive) | > 30 µM (inactive) | > 30 µM (inactive) | > 30 µM (inactive)
CCOc1cc2ncc(C#N)c(Nc3ccc(F)c(Cl)c3)c2cc1NC(=O)/C=C/CN(C)C [PELITINIB] | > 30 µM (inactive) | > 30 µM (inactive) | > 30 µM (inactive) | > 30 µM (inactive) | > 30 µM (inactive) | > 30 µM (inactive)
CNC(=O)c1cc(Oc2ccc(NC(=O)Nc3cc(C(C)(C)C)nn3-c3ccc4ncccc4c3)c(F)c2)ccn1 [REBASTINIB] | > 30 µM (inactive) | > 30 µM (inactive) | > 30 µM (inactive) | > 30 µM (inactive) | > 30 µM (inactive) | 14.2 µM (active)
CN1CCN(CCOc2cc(OC3CCOCC3)c3c(Nc4c(Cl)ccc5c4OCO5)ncnc3c2)CC1 [SARACATINIB] | > 30 µM (inactive) | > 30 µM (inactive) | > 30 µM (inactive) | > 30 µM (inactive) | > 30 µM (inactive) | > 30 µM (inactive)
